The text below walks through data of US20190351012A1, “TARGETING OF INTERFERON-STIMULATED GENE EXPRESSION TO TREAT INTERFERONOPATHIES” (New York University, priority 2018, published 2019).

In experiment [1] the test system is BRD4 at ISG56, Mx1 and IRF9 TSS. Description: ChIP-qPCR for BRD4 at ISG promoters in HeLa cells. It counts as cell-based, human. To be noted: 1 h IFN stimulation. The procedure:
FIG. 5. BRD4 is required for ISG transcription. (A) HeLa cells were either left untreated or treated with IFN-α for 1 h in presence or absence of JQ-1 or HMBA. Using primers spanning intron-exon junctions, nuclear pre-mRNA for ISG54 and γ-actin were quantified by real-time RT-PCR and normalized to GAPDH mRNA. (B) Control and BRD4 KD cells were either left untreated or treated with IFN-α. ISG56 and BRD4 mRNA were quantified using real-time RT-PCR and normalized to GAPDH mRNA abundance. (C) HEK293T cells were transfected with pcDNA3 (Ctl) or Brd4 expression constructs along with a luciferase reporter driven by the ISG54 promoter. 24 h after transfection, cells were either left untreated or treated with IFN-α in the absence or presence of TSA before being assayed for luciferase activity (left panel). […] Nuclear proteins were extracted as a soluble fraction and a chromatin bound fraction and analyzed by western blotting using anti-BRD4, H4-AcK5 and actin antibodies. […] (F) ChIP assays were performed with antibodies against BRD4 and recovered ISG56, Mx1 and IRF9 TSS spanning sequences were quantified by real-time PCR, normalized to input, and represented as fold enrichment over the untreated sample. […]
Chromatin immunoprecipitation was performed as follows. […] Immunoprecipitated DNA sequences were recovered by alcohol precipitation and quantified by real-time PCR compared with input genomic DNA. […]
On the technique in general: Real-time PCR tracks product formation cycle by cycle.

Experiment [2] has as its system BRD4. Description: Nuclear BRD4 distribution (soluble versus chromatin-bound) by differential salt extraction and western blot in HeLa cells. It counts as cell-based, human. Particulars: western blot. The procedure:
FIG. 5. BRD4 is required for ISG transcription. (A) HeLa cells were either left untreated or treated with IFN-α for 1 h in presence or absence of JQ-1 or HMBA. Using primers spanning intron-exon junctions, nuclear pre-mRNA for ISG54 and γ-actin were quantified by real-time RT-PCR and normalized to GAPDH mRNA. (B) Control and BRD4 KD cells were either left untreated or treated with IFN-α. ISG56 and BRD4 mRNA were quantified using real-time RT-PCR and normalized to GAPDH mRNA abundance. (C) HEK293T cells were transfected with pcDNA3 (Ctl) or Brd4 expression constructs along with a luciferase reporter driven by the ISG54 promoter. 24 h after transfection, cells were either left untreated or treated with IFN-α in the absence or presence of TSA before being assayed for luciferase activity (left panel). HEK293T cells were transfected with pcDNA3 (Ctl) or Brd4 expression constructs along with a luciferase reporter driven by the constitutive RSV promoter and assayed for luciferase activity after 36 h (right panel). (D) Hela cells were either left untreated or treated with IFN-α for 2 h in presence or absence of TSA or Anacardic acid (AA). Nuclear proteins were extracted as a soluble fraction and a chromatin bound fraction and analyzed by western blotting using anti-BRD4, H4-AcK5 and actin antibodies. […] (F) ChIP assays were performed with antibodies against BRD4 and recovered ISG56, Mx1 and IRF9 TSS spanning sequences were quantified by real-time PCR, normalized to input, and represented as fold enrichment over the untreated sample.
BRD4 is recruited to active promoters along with polymerase, and it associates with elongating polymerase to affect transcriptional elongation. […] Cells were treated with IFN in the presence or absence of TSA, and nuclear BRD4 was quantified in soluble versus chromatin-bound fractions by differential salt extraction (FIG. 5D). Most BRD4 was detected in the soluble nucleoplasm fraction in untreated or IFN-treated cells (FIG. 5D, compare lanes 1 and 2 with 5 and 6). […]
Nuclear extracts were prepared and analyzed by immunoblotting as follows. […]
On the technique in general: In western blotting, separated proteins are transferred to a membrane and probed.

Entries after “also recorded” stand apart in the source; their conditions may differ.

Consider `CC(/C=C/C(=O)NO)=C\[C@@H](C)C(=O)c1ccc(N(C)C)cc1` [TSA, Trichostatin A], for which the “IFN-induced BRD4 recruitment to ISG promoters” value in experiment [1] was “abrogated”. In addition, in experiment [2] (IFN-α 2 h), the “soluble nuclear BRD4” value is on record as “undetectable; also recorded: depletion”. Moreover, in experiment [2], the “histone acetylation (acetylated H4K5)” value is on record as “large increase”.
